According to ChEMBL document CHEMBL1143897, “Aryl-indolyl maleimides as inhibitors of CaMKIIdelta. Part 2: SAR of the amine tether” (Bioorg Med Chem Lett, 2008):

Target: Calcium/calmodulin-dependent protein kinase type II subunit delta (Homo sapiens, UniProt Q13557)
Assay: Inhibition of CaMK2delta

Calcium/calmodulin-dependent protein kinase type II subunit delta, sequence (Q13557 whole entry): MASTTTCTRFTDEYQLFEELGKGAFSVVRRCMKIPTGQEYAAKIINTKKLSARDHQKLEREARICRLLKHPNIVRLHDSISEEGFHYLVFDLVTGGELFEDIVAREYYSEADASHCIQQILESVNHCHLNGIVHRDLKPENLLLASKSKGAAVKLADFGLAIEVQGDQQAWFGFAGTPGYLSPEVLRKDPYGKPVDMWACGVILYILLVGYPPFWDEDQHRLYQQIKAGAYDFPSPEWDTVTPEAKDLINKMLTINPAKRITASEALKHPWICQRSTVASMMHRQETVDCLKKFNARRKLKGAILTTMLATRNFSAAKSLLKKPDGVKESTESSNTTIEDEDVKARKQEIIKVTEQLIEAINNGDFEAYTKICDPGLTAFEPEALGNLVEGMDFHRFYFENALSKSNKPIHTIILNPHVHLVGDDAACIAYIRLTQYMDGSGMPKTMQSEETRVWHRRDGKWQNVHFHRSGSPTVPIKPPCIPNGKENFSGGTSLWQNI

| Compound | IC50 [nM] |
| --- | --- |
| NCCCn1cc(C2=C(c3cccc(Br)c3)C(=O)NC2=O)c2ccccc21 | 180 |
| Cn1cc(C2=C(c3ccccc3)C(=O)NC2=O)c2ccccc21 | > 20000 |
| CN1CCCC1CCn1cc(C2=C(c3c[nH]c4ccccc34)C(=O)NC2=O)c2ccccc21 (stereo not drawn) | 1890 |
| CC(C)(C)OC(=O)NCCCn1cc(C2=C(c3c[nH]c4ccccc34)C(=O)NC2=O)c2ccccc21 | 3810 |
| NCC(O)Cn1cc(C2=C(c3ccccc3)C(=O)NC2=O)c2ccccc21 (stereo not drawn) | 450 |
| O=C1NC(=O)C(c2c[nH]c3ccccc23)=C1c1cccc(Br)c1 | 3530 |
| O=C1NC(=O)C(c2cn(CCC3CCCCN3)c3ccccc23)=C1c1c[nH]c2ccccc12 (stereo not drawn) | 1450 |
| Cn1cc(C2=C(c3cn(C4CCCNC4)c4ccccc34)C(=O)NC2=O)c2ccccc21 (stereo not drawn) | 300 |
| Cn1cc(C2=C(c3c[nH]c4ccc(Br)cc34)C(=O)NC2=O)c2ccccc21 | 870 |
| O=C1NC(=O)C(c2c[nH]c3ccccc23)=C1c1ccccc1 | > 20000 |
| O=C1NC(=O)C(c2c[nH]c3ccccc23)=C1c1c[nH]c2ccccc12 [RO-316233] | 1190 |
| NCCCn1cc(C2=C(c3c[nH]c4ccc(Br)cc34)C(=O)NC2=O)c2ccccc21 | 34 |
| CC(C)(C)OC(=O)NCCCn1cc(C2=C(c3ccccc3)C(=O)NC2=O)c2ccccc21 | > 20000 |
| Cn1cc(C2=C(c3cn(CCCN)c4ccccc34)C(=O)NC2=O)c2ccccc21 | 310 |
| CC(C)(C)OC(=O)NCCCn1cc(C2=C(c3c[nH]c4ccc(Br)cc34)C(=O)NC2=O)c2ccccc21 | 7540 |
| O=C1NC(=O)C(c2cn(CCCN3CCNCC3)c3ccccc23)=C1c1c[nH]c2ccccc12 | 2020 |
| NCCCn1cc(C2=C(c3ccccc3)C(=O)NC2=O)c2ccccc21 | 1350 |
| Cn1cc(C2=C(c3cn(C4CCN(Cc5ccccc5)CC4)c4ccccc34)C(=O)NC2=O)c2ccccc21 | 1870 |
